Measured values taken from patent publication US20240307348A1, “COMPOSITION FOR PREVENTING AND TREATING MUSCLE DISEASE, IMPROVING MUSCLE FUNCTION OR ENHANCING MOTOR PERFORMANCE COMPRISING HYDRANGENOL OR HYDRANGEA EXTRACT AS ACTIVE INGREDIENT” (COSMAXBIO CO., LTD., priority 2018, published 2024).

Tests used:
C2C12 cells [1] = experiment: Change in muscle-related gene expression (qRT-PCR) upon treatment with hydrangenol or Hydrangea extract; assay type: cell-based; settings: C2C12 cells differentiated 5 days, 1 hour or 24 hours
Description: Each sample obtained in Examples 1 and 2 was analyzed in regards to its effects on the change in gene expression involved in the gain of muscle mass and the mitochondrial biogenesis and electron transport chain (ETC). For this experiment, C2C12 cells were differentiated for 5 days and then treated with the sample of Example 1 (25 μg/ml) or Example 2 (2.5 μg/ml) for 1 hour or 24 hours, respectively. Then, Trizol was used to extract RNA from the cell, and cDNA was synthesized from the RNA (cDNA synthesis kit, Bio-Rad). Finally, a realtime PCR (qRT-PCR) was performed (Viia7, […] Biosystems) using the oligomers of Table 1 as primers.
In the experimental example, the extract of Hydrangea serrata is indicated as S; the extract of Hydrangea macrophylla as M; and hydrangenol as H. “0” means a control that was treated with vehicle.

C2C12 cells [2] = experiment: Change in muscle-related protein expression (primary antibodies) upon treatment with hydrangenol or Hydrangea extract; assay type: cell-based; settings: C2C12 cells differentiated 5 days; Example 1 25 ug/ml or Example 2 2.5 ug/ml; 1 hour or 24 hours; FIG. 9
Description: Each sample obtained in Examples 1 and 2 was analyzed in regards to its effects on the change in protein expression involved in the prevention of muscle diseases, the improvement of muscle functions, and the promotion of motor performance. For this experiment, C2C12 cells were differentiated for 5 days and then treated with the sample of Example 1 (25 ug/ml) or Example 2 (2.5 ug/ml) for 1 hour or 24 hours, respectively. Then, the cell was broken down with a modified LIPA buffer, and 20 ug of each sample was used for analysis. The primary antibodies of p-ERK (9101S: Cell Signaling), p-mTOR (ab109268, Abcam), mTOR (2972, Cell Signaling), p-p70S6K (9234, Cell Signaling), p-AMPK (4186, Cell Signaling), PGC1a (ab54481, Abcam), and ß-actin (A5316, Sigma) were used for the analysis.

[3] = Example 1 25 μg/ml or Example 2 2.5 μg/ml, FIG. 8

O=C1OC(c2ccc(O)cc2)Cc2cccc(O)c21 (centres unmarked) [Example 2, 8-hydroxy-3-(4-hydroxyphenyl)-3,4-dihydroisochromen-1-one]
expression of Myogenin (C2C12 cells [1]; [3]): promoted | gene (mRNA) expression of PPARα (C2C12 cells [1]; [3]): increase | gene expression of MyoD (C2C12 cells [1]; [3]): promoted | gene expression of PGC1α (C2C12 cells [1]; [3]): activate | gene expression of PPARδ (C2C12 cells [1]; [3]): activate | gene expression of SIRT1 (C2C12 cells [1]; [3]): increased | amount of expression for most of genes shown in FIG. 8 (C2C12 cells [1]; Example 2 2.5 μg/ml): regulated | activity of p-AMPK (C2C12 cells [2]): increased | phosphorylation of ERK (MAPK) (C2C12 cells [2]): through the phosphorylation of ERK | phosphorylation of mTOR (C2C12 cells [2]): activated | protein expression of PGC1α (C2C12 cells [2]): increased
